“And” between values parts separate entries of the source, which are not always exact repeats. Equal entries are not always repeated. Where two headings read alike, the source gives them in different places.
How the values were obtained:
CNGB1b = system: CNGB1b; design: method as in Nache et al., 2012; key: +: ligand binding to the respective modulatory subunits was either observed or not; −: ligand binding to the respective modulatory subunits was either observed or not; settings: 10 μM; construct CNGB1b; ref Nache et al., 2012; cited from earlier work
CNGA4 = system: CNGA4; design: method as in Nache et al., 2012; key: +: ligand binding to the respective modulatory subunits was either observed or not; −: ligand binding to the respective modulatory subunits was either observed or not; settings: 10 μM; construct CNGA4; ref Nache et al., 2012; cited from earlier work
CNGA2TM:A4RE:B1b = target: T1, CNGA2TM:A4RE:B1b (Rattus norvegicus, UniProt A0A8I5ZN27+Q00195+Q64359, R430E/T539M); assay: Ligand binding, confocal patch-clamp fluorometry; design: key to Ligand binding to CNGA4 / Ligand binding to CNGB1b: +: ligand binding to the respective modulatory subunits was either observed or not; −: ligand binding to the respective modulatory subunits was either observed or not
T1 construct: expressed in transfected cells; host or cells: Xenopus laevis oocytes (cRNA injection), excised inside-out patches
T1 sequence (Q00195 whole entry T539M): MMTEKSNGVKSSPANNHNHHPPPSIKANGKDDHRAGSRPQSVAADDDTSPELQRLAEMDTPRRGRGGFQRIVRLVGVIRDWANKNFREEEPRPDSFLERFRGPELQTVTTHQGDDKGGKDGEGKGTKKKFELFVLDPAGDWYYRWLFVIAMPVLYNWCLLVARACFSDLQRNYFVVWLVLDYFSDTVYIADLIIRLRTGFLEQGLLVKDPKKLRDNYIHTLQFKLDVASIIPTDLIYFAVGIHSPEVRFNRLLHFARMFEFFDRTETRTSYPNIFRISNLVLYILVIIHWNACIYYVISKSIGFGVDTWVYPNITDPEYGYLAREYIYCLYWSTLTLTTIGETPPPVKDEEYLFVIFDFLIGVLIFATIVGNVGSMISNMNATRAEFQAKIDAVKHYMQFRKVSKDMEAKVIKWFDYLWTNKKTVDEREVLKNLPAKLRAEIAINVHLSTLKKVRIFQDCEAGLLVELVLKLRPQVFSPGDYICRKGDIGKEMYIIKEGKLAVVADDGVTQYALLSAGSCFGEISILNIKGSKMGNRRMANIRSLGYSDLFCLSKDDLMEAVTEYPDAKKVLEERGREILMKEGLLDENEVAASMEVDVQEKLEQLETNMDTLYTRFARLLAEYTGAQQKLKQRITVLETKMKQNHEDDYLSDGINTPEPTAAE
T1 sequence (Q64359 whole entry R430E): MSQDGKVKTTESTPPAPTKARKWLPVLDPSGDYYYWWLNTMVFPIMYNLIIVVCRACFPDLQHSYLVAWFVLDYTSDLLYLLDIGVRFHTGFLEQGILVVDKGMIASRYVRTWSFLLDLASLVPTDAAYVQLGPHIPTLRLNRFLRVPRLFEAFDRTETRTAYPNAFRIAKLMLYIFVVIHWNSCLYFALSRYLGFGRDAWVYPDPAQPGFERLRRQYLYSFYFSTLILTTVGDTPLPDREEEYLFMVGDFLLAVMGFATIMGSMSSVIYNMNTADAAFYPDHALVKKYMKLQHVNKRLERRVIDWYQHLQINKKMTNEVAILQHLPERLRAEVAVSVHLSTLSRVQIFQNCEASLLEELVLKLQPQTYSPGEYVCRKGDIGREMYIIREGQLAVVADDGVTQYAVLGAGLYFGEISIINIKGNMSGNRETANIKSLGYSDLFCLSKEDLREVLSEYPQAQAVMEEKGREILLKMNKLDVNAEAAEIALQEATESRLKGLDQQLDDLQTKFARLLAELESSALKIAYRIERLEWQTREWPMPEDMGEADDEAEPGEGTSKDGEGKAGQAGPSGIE
T1 sequence (A0A8I5ZN27 1-858 isoform A0A8I5ZN27-2, stated change not applied): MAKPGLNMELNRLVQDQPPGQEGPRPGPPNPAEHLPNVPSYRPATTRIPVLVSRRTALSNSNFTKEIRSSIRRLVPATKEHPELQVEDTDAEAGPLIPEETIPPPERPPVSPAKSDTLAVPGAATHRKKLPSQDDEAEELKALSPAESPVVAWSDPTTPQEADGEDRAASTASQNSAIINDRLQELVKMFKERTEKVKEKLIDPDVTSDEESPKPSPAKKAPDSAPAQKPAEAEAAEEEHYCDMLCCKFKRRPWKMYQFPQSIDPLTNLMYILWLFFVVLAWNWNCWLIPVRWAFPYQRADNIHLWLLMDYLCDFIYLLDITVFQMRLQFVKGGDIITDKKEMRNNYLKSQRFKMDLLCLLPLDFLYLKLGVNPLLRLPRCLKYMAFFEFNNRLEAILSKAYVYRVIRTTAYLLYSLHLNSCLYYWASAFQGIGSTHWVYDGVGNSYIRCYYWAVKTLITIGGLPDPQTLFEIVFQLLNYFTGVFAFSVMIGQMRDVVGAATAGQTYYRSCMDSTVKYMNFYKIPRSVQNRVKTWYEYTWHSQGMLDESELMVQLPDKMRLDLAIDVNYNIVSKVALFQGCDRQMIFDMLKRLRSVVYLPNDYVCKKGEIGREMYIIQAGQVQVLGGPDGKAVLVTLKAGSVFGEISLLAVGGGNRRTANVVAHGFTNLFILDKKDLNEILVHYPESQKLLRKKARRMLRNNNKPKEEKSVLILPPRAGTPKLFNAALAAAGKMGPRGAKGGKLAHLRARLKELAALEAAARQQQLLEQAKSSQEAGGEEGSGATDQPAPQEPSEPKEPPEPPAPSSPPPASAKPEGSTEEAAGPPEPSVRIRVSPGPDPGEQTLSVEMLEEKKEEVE
Text: (§1) The channels to be studied were expressed in Xenopus oocytes. We first tested the subunit composition in our channels when coexpressing different combinations of subunits by single-channel recordings. For CNGA2:A4, CNGA2:B1b and CNGA2:A4:B1b channels we exclusively obtained the specific and easily distinguishable single-channel activity reported earlier when injecting respective amounts of RNA[7][13]. We therefore assumed that the channels formed had always the expected subunit composition. The specific binding of cyclic nucleotides and the activation of the CNG channels were measured in parallel by means of confocal patch-clamp fluorometry in excised patches, using fluorescent cyclic nucleotide derivatives. The method has been described previously.
(§2) To verify the hypothesis that the CNGB1b subunit in CNGA2:A4:B1b channels binds cyclic nucleotides, we coexpressed CNGB1b with CNGA4RE and either CNGA2RE or CNGA2TM and measured ligand binding in the presence of 10 μM fcGMP. […] To verify the specificity of the binding to the CNGB1b subunit in these heterotetrameric channels, we coexpressed the CNGB1bRE subunit with CNGA2RE and CNGA4RE.
(§3) The ligand binding was measured in macropatches by patch-clamp fluorometry[41][42] combined with confocal microscopy. […] Recordings were performed with an LSM 510 or 710 confocal microscope (Zeiss, Jena, Germany) and were triggered by the ISO3 software (MFK, Niedernhausen, Germany). To distinguish between the fluorescence of the unbound ligands from that of the bound ligands, a second dye, DY647 (Dyomics, Jena, Germany), was added to the bath solution. The 543-nm and 633-nm lines of a He-Ne laser were used to excite fcAMP/fcGMP and DY647, respectively. The method of confocal patch-clamp fluorometry has been described in detail previously.

CNGA2RE:A4RE:B1bRE = target: T2, CNGA2RE:A4RE:B1bRE (Rattus norvegicus, UniProt A0A8I5ZN27+Q00195+Q64359, R1106E/R430E/R538E); assay: Ligand binding, confocal patch-clamp fluorometry; design: key to Ligand binding to CNGA4 / Ligand binding to CNGB1b: +: ligand binding to the respective modulatory subunits was either observed or not; −: ligand binding to the respective modulatory subunits was either observed or not
T2 construct: expressed in transfected cells; host or cells: Xenopus laevis oocytes (cRNA injection), excised inside-out patches
T2 sequence (Q00195 whole entry R538E): as the sequence (Q00195 whole entry T539M) above, with R538E, M539T counted along it
T2 sequence (Q64359 whole entry R430E): as the sequence (Q64359 whole entry R430E) above
T2 sequence (A0A8I5ZN27 1-858 isoform A0A8I5ZN27-2 R657E): as the sequence (A0A8I5ZN27 1-858 isoform A0A8I5ZN27-2, stated change not applied) above, with R657E counted along it
Text: as §1, §2, §3

CNGA2RE:A4RE:B1b = target: T3, CNGA2RE:A4RE:B1b (Rattus norvegicus, UniProt A0A8I5ZN27+Q00195+Q64359, R430E/R538E); assay: Ligand binding, confocal patch-clamp fluorometry; design: key to Ligand binding to CNGA4 / Ligand binding to CNGB1b: +: ligand binding to the respective modulatory subunits was either observed or not; −: ligand binding to the respective modulatory subunits was either observed or not
T3 construct: expressed in transfected cells; host or cells: Xenopus laevis oocytes (cRNA injection), excised inside-out patches
T3 sequence (Q00195 whole entry R538E): as the sequence (Q00195 whole entry T539M) above, with R538E, M539T counted along it
T3 sequence (Q64359 whole entry R430E): as the sequence (Q64359 whole entry R430E) above
T3 sequence (A0A8I5ZN27 1-858 isoform A0A8I5ZN27-2, stated change not applied): as the sequence (A0A8I5ZN27 1-858 isoform A0A8I5ZN27-2, stated change not applied) above
Text: as §1, §2, §3

[1] = target: T4, CNGA2RE:A4:B1bRE channels (Rattus norvegicus, UniProt A0A8I5ZN27+Q00195+Q64359, R1106E/R538E); assay: Concentration-activation relationship, patch-clamp; type: biochemical; settings: for EC50: Equation 2, +100 mV
T4 construct: expressed in transfected cells; host or cells: Xenopus laevis oocytes (cRNA injection), excised inside-out patches
T4 sequence (Q00195 whole entry R538E): as the sequence (Q00195 whole entry T539M) above, with R538E, M539T counted along it
T4 sequence (Q64359 whole entry): as the sequence (Q64359 whole entry R430E) above, with E430R counted along it
T4 sequence (A0A8I5ZN27 1-858 isoform A0A8I5ZN27-2 R657E): as the sequence (A0A8I5ZN27 1-858 isoform A0A8I5ZN27-2, stated change not applied) above, with R657E counted along it
Method: In order to determine the apparent affinity of the modulatory subunits in heterotetrameric CNGA2:A4:B1b channels for cGMP, we coexpressed each of them with disabled neighbored subunits, generating themselves activation effects only at much higher ligand concentrations. In case of two well-separated current components, this would allow us to determine the EC50 value for the CNGB1b and CNGA4 subunit in functional heterotetrameric channels.
Patch-clamp experiments were performed using an Axopatch 200B amplifier (Molecular Devices LLC, CA, U.S.A.) in the inside-out configuration. The patch pipettes for recording of macroscopic currents were pulled from borosilicate glass tubing (outer diameter 2.0 mm, inner diameter 1.0 mm; Hilgenberg GmbH, Germany). The initial resistance was 0.7–1.3 MΩ. The patches were formed as pushed inside-out patches. […] Cyclic nucleotide concentration jumps were performed using a double-barreled glass pipette mounted on a piezo-driven device. Intracellular (bath) and extracellular (pipette) solutions contained (mM) 150 KCl, 1 EGTA, 5 Hepes, pH = 7.4 with KOH. […] Currents in the absence of the cyclic nucleotide were subtracted. All patches included in this study were first tested for channel expression in the presence of a saturating ligand concentration. Only patches with large current, i.e. a large number of channels, were included in our statistics. The currents were measured at +10 mV or, if mentioned, at +100 mV.
Fits of equations to data points were performed with the 8.1G® software (OriginLab Corporation, Northampton, U.S.A.). Concentration-activation relationships were obtained by relating the actual current amplitude, I, to the maximum current amplitude elicited by a saturating concentration of ligand, Imax, and plotting this ratio as function of the ligand concentration, x. The concentration-activation data were fitted using the Hill equation
For the concentration-activation relationships showing two components, the data points were fitted to the sum of two Hill equations according to
EC50,h, EC50,l, Hh, and Hl are the ligand concentration of half maximum current and the Hill coefficient for the high and low affinity component, respectively. a and (1-a) denote the contribution of the high and low affinity component, respectively.

[2] = system: concatameric homotetrameric CNGA2 channels with three disabled subunits; design: method as in PMID 26858151; settings: read-out: EC50 of one CNGA2 subunit; cited from earlier work
[3] = 10 μM, construct CNGA2TM:A4RE:B1b
[4] = 10 μM, construct CNGA2RE:A4RE:B1bRE
[5] = 10 μM, construct CNGA2RE:A4RE:B1b

Compound | Ligand binding to CNGB1b (CNGB1b) | Ligand binding to CNGA4 (CNGA4) | binding to the CNGB1b subunit (in words) (CNGA2TM:A4RE:B1b; 10 μM fcGMP, CNGB1b with CNGA4RE and CNGA2TM) | Ligand binding to CNGA4 (CNGA2TM:A4RE:B1b; [3]) | Ligand binding to CNGB1b (CNGA2TM:A4RE:B1b; [3]) | binding (in words) (CNGA2RE:A4RE:B1bRE; 10 μM fcGMP, CNGB1bRE with CNGA2RE and CNGA4RE) | Ligand binding to CNGA4 (CNGA2RE:A4RE:B1bRE; [4]) | Ligand binding to CNGB1b (CNGA2RE:A4RE:B1bRE; [4]) | binding to the CNGB1b subunit (in words) (CNGA2RE:A4RE:B1b; 10 μM fcGMP, CNGB1b with CNGA4RE and CNGA2RE) | Ligand binding to CNGA4 (CNGA2RE:A4RE:B1b; [5]) | Ligand binding to CNGB1b (CNGA2RE:A4RE:B1b; [5]) | H1 ([1]; Hill coefficient of low affinity component, +100 mV) | a (contribution of the high affinity component) ([1]; fraction, Equation 2) | EC50 ([1]; high affinity component (action of CNGA4), read-out: EC50,h) | EC50 ([1]; low affinity component, read-out: EC50,l) | maximum contribution of CNGA4 to channel activation (a) ([1]; of the maximum channel activity generated by all subunits) | EC50 [2]
8-[DY-547]-AET-cGMP [fcGMP] | − | − | robust binding | − | + | essentially diminished | − | − | robust binding | − | + |  |  |  |  |  | 
Nc1nc2c(ncn2[C@@H]2O[C@@H]3COP(=O)(O)O[C@H]3[C@H]2O)c(=O)[nH]1 [cGMP] |  |  |  |  |  |  |  |  |  |  |  | 1.1 | 0.24 | 8.9 µM and 8.86 µM | 364 µM | 24.6% and ~ 24% | 22.2 µM
